Reference: patent publication US12473290B2, “Imidazopyridazine compounds useful as modulators of IL-12, IL-23 and/or IFN alpha responses” (BRISTOL-MYERS SQUIBB COMPANY, priority 2019, dated 2025)

Key:
Format in all cases: cell-based
[1] = tested on: IFNα Kit225 Reporter (Kit225 T cells with a stably-integrated STAT-dependent luciferase reporter, stimulated with IFNα); assay: Kit225 T Cell Assay, IFNα-stimulated STAT-dependent luciferase reporter; conditions: 200 U/mL human recombinant IFNα, 5-6 hours, luciferase expression
Experimental: (§1) Kit225 T cells with a stably-integrated STAT-dependent luciferase reporter were plated in RPMI (Gibco) containing 10% heat-inactivated FBS (Gibco) and 100 U/mL PenStrep (Gibco). The cells were then stimulated with either 20 ng/mL human recombinant IL-23 or 200 U/mL human recombinant IFNα (PBL InterferonSource) for 5-6 hours. Luciferase expression was measured using the STEADY-GLO® Luciferase Assay System (Promega) according to the manufacturer's instructions. Inhibition data were calculated by comparison to no inhibitor control wells for 0% inhibition and non-stimulated control wells for 100% inhibition. Dose response curves were generated to determine the concentration required to inhibit 50% of cellular response (IC50) as derived by non-linear regression analysis.

[2] = tested on: IL-23 Kit225 Reporter (Kit225 T cells with a stably-integrated STAT-dependent luciferase reporter, stimulated with IL-23); assay: Kit225 T Cell Assay, IL-23-stimulated STAT-dependent luciferase reporter; conditions: 20 ng/mL human recombinant IL-23, 5-6 hours, luciferase expression
Experimental: as §1

[3] = as above; conditions: Kit225 T cells, 20 ng/mL human recombinant IL-23, 5-6 hours, luciferase expression
Experimental: as §1

| IC50 [1] | IC50 [3] | Compound | IC50 [2] |
| --- | --- | --- | --- |
| 450 nM | 340 nM | CC(C)(O)C(=O)Nc1cccc(Nc2cc(NC3CCOCC3)nn3c(C#N)cnc23)n1 [Example 25, N-[6-({3-cyano-6-[(oxan-4-yl)amino]imidazo[1,2-b]pyridazin-8-yl}amino)pyridin-2-yl]-2-hydroxy-2-methylpropanamide] |  |
| 200 nM | 900 nM | CC(C)(C)C(=O)Nc1cccc(Nc2cc(NCC3CC3)nn3c(C#N)cnc23)n1 [Example 26, N-[6-({3-cyano-6-[(cyclopropylmethyl)amino]imidazo[1,2-b]pyridazin-8-yl}amino)pyridin-2-yl]-2,2-dimethylpropanamide] |  |
| 160 nM | 340 nM | N#Cc1cnc2c(Nc3ccc(C(=O)N4CC[C@@H](C#N)C4)c(OCC(F)F)n3)cc(NC3CCOCC3)nn12 [Example 47, (3R)-1-[6-({3-cyano-6-[(oxan-4-yl)amino]imidazo[1,2-b]pyridazin-8-yl}amino)-2-(2,2-difluoroethoxy)pyridine-3-carbonyl]pyrrolidine-3-carbonitrile] |  |
| 760 nM | 430 nM | COc1ccc(Nc2cc(NC34CC5CC(O)(CC(O)(C5)C3)C4)nn3c(C#N)cnc23)nc1NC(=O)C(C)(C)C [Example 21, N-[6-({3-cyano-6-[(3,5-dihydroxyadamantan-1-yl)amino]imidazo[1,2-b]pyridazin-8-yl}amino)-3-methoxypyridin-2-yl]-2,2-dimethylpropanamide] |  |
| 490 nM | 420 nM | CC(C)(C)NC(=O)c1cccc(Nc2cc(NC34CC5CC(CC(O)(C5)C3)C4)nn3c(C#N)cnc23)n1 [Example 17, N-tert-butyl-6-({3-cyano-6-[(3-hydroxyadamantan-1-yl)amino]imidazo[1,2-b]pyridazin-8-yl}amino)pyridine-2-carboxamide] |  |
| 640 nM | 710 nM | CC(C)(CC(N)=O)NC(=O)c1cccc(Nc2cc(NC34CC5CC(CC(O)(C5)C3)C4)nn3c(C#N)cnc23)n1 [Example 42, 3-{[6-({3-cyano-6-[(3-hydroxyadamantan-1-yl)amino]imidazo[1,2-b]pyridazin-8-yl}amino)pyridin-2-yl]formamido}-3-methylbutanamide] |  |
| 850 nM | 670 nM | N#Cc1cnc2c(Nc3ccc(C(=O)N4CCCC4C(F)(F)F)c(OCC(F)F)n3)cc(N[C@@H]3CCCC[C@H]3O)nn12 (stereo partly drawn) [Example 33, 8-{[6-(2,2-difluoroethoxy)-5-[2-(trifluoromethyl)pyrrolidine-1-carbonyl]pyridin-2-yl]amino}-6-{[(1R,2R)-2-hydroxycyclohexyl]amino}imidazo[1,2-b]pyridazine-3-carbonitrile] |  |
| 390 nM | 260 nM | CC(=O)N1[C@H](C)CN(c2cccc(Nc3cc(NC45CC6CC(CC(O)(C6)C4)C5)nn4c(C#N)cnc34)n2)C[C@@H]1C [Example 40, 8-({6-[(3R,5S)-4-acetyl-3,5-dimethylpiperazin-1-yl]pyridin-2-yl}amino)-6-[(3-hydroxyadamantan-1-yl)amino]imidazo[1,2-b]pyridazine-3-carbonitrile] |  |
| 220 nM | 160 nM | N#Cc1cnc2c(Nc3ccc(C(=O)N4CCCC4C(F)(F)F)c(OCC(F)F)n3)cc(NC3CCOCC3)nn12 (centres unmarked) [Example 49, 8-{[6-(2,2-difluoroethoxy)-5-[2-(trifluoromethyl)pyrrolidine-1-carbonyl]pyridin-2-yl]amino}-6-[(oxan-4-yl)amino]imidazo[1,2-b]pyridazine-3-carbonitrile] |  |
| 110 nM | 550 nM | N#Cc1cnc2c(Nc3cccc(N4CCOCC4)n3)cc(N[C@@H]3CCCC[C@H]3O)nn12 [Example 65, 6-{[(1R,2R)-2-hydroxycyclohexyl]amino}-8-{[6-(morpholin-4-yl)pyridin-2-yl]amino}imidazo[1,2-b]pyridazine-3-carbonitrile] |  |
| 260 nM | 740 nM | N#Cc1cnc2c(Nc3ccc(C(=O)NCC4CCCO4)c(OCC(F)F)n3)cc(NC3CCOCC3)nn12 (centres unmarked) [Example 45, 6-({3-cyano-6-[(oxan-4-yl)amino]imidazo[1,2-b]pyridazin-8-yl}amino)-2-(2,2-difluoroethoxy)-N-[(oxolan-2-yl)methyl]pyridine-3-carboxamide] |  |
| 850 nM | 360 nM | COc1cccc2ccc(Nc3cc(NC45CC6CC(O)(CC(F)(C6)C4)C5)nn4c(C#N)cnc34)nc12 (centres unmarked) [Example 22, 6-[(3-fluoro-5-hydroxyadamantan-1-yl)amino]-8-[(8-methoxyquinolin-2-yl)amino]imidazo[1,2-b]pyridazine-3-carbonitrile] |  |
| 190 nM | 140 nM | CN(C)c1nc(Nc2cc(N[C@@H]3CCCC[C@H]3O)nn3c(C#N)cnc23)ccc1C(=O)N1CCCC1 [Example 3, 8-{[6-(dimethylamino)-5-(pyrrolidine-1-carbonyl)pyridin-2-yl]amino}-6-{[(1R,2R)-2-hydroxycyclohexyl]amino}imidazo[1,2-b]pyridazine-3-carbonitrile] |  |
| 200 nM | 290 nM | CN1CCN(c2cccc(Nc3cc(N[C@@H]4CCCC[C@H]4O)nn4c(C#N)cnc34)n2)CC1 [Example 62, 6-{[(1R,2R)-2-hydroxycyclohexyl]amino}-8-{[6-(4-methylpiperazin-1-yl)pyridin-2-yl]amino}imidazo[1,2-b]pyridazine-3-carbonitrile] |  |

| Compound | IC50 [1] | IC50 [3] | IC50 [2] |
| --- | --- | --- | --- |
| N#Cc1cnc2c(Nc3ccc(C(=O)N4[C@H]5CC[C@@H]4CC5)c(OCC(F)F)n3)cc(NC3CCOCC3)nn12 [Example 46, 8-{[6-(2,2-difluoroethoxy)-5-[(1s,4s)-7-azabicyclo[2.2.1]heptane-7-carbonyl]pyridin-2-yl]amino}-6-[(oxan-4-yl)amino]imidazo[1,2-b]pyridazine-3-carbonitrile] | 360 nM |  | 60 nM |
| CC(C)(C)Oc1nc(Nc2cc(N[C@H]3CCCC[C@@H]3O)nn3c(C#N)cnc23)ccc1C(=O)N1CCCC1 [Example 5, 8-{[6-(tert-butoxy)-5-(pyrrolidine-1-carbonyl)pyridin-2-yl]amino}-6-{[(1S,2S)-2-hydroxycyclohexyl]amino}imidazo[1,2-b]pyridazine-3-carbonitrile] | 1300 nM | 1130 nM |  |
